Consider 23 molecules from patent US10188634B2, “3-(3H-imidazo[4,5-C]pyridin-2-yl)-1 H-pyrazolo[4,3-B]pyridines and therapeutic uses thereof” (Samumed, LLC, priority 2015, dated 2019).

The subject of assay [1] is IL-6 in THP-1 cells. The assay can be described thus: Inhibition of IL-6 in LPS-stimulated THP-1 human monocyte cells (HTRF). As to conditions: IL-6 HTRF; for EC50: 500 ng/mL LPS, 22 hours; for inhibition at 10 µM: LPS, read-out: percent inhibition in brackets (given for EC50 >10 μM). Format: cell-based. The essentials:
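IL-6 was quantified by HTRF ratio after LPS (500 ng/mL, 22 h) stimulation of THP-1 monocytes pretreated 2 h with compound, 10-point 1:3 dilutions from 10 μM, 0.1% DMSO. Cells were held in 1% FBS for 24 h beforehand. Values normalised to DMSO; four-parameter EC50, or % inhibition at 10 μM above that.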

Assay [2] relates to Wnt activity (Sp5-Luc reporter, human Sp5 promoter with eight TCF/LEF binding sites) in SW480 colon carcinoma cells. The assay can be described thus: Screening assay for Wnt activity: Sp5-Luc reporter gene assay in SW480 cells. Format: cell-based. As to conditions: for EC50: 10-point dose-response starting from 10 μM, overnight incubation; for inhibition at 10 µM: read-out: percent inhibition at 10 μM (given for EC50 of >10 μM). The essentials:
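Luminescence (BrightGlo) read after overnight 37 °C exposure of Sp5-Luc SW480 reporter cells, 4,000/well in 1% FBS, to compound dosed 1:3 over 10 points from 10 μM with 0.1% DMSO. Values normalized to DMSO-only cells, fitted with variable-slope four-parameter model; where EC50 exceeds 10 μM, % inhibition at 10 μM reported.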
For orientation: A reporter such as luciferase makes a cellular process visible.

The term EC50 denotes the concentration giving half of the maximal effect. As for `CN(C)c1cncc(-c2ccc3[nH]nc(-c4nc5c(-c6cccc(F)c6)cncc5[nH]4)c3n2)c1` [Compound 7, 5-(3-(7-(3-Fluorophenyl)-3H-imidazo[4,5-c]pyridin-2-yl)-1H-pyrazolo[4,3-b]pyridin-5-yl)-N,N-dimethylpyridin-3-amine], the EC50 in assay [1] came out at 341 nM; in assay [2], 638 nM.
For `CN(C)Cc1cncc(-c2ccc3[nH]nc(-c4nc5c(-c6cccc(F)c6)cncc5[nH]4)c3n2)c1` [Compound 13, 1-(5-(3-(7-(3-Fluorophenyl)-3H-imidazo[4,5-c]pyridin-2-yl)-1H-pyrazolo[4,3-b]pyridin-5-yl)pyridin-3-yl)-N,N-dimethylmethanamine], in that order: 1540 nM and 1100 nM.
Broadly, the inhibition is the relative decrease from the control value, in per cent. With `O=C(Nc1cncc(-c2ccc3[nH]nc(-c4nc5c(-c6cccc(F)c6)cncc5[nH]4)c3n2)c1)C1CC1` [Compound 20, N-(5-(3-(7-(3-Fluorophenyl)-3H-imidazo[4,5-c]pyridin-2-yl)-1H-pyrazolo[4,3-b]pyridin-5-yl)pyridin-3-yl)cyclopropanecarboxamide], the concentration for a half-maximal effect (EC50) in assay [1] and in assay [2] was over 10000 nM each time. In addition, the inhibition at 10 µM in assay [1] turned out to be 19.6%; in assay [2], 7%.
For `Fc1cccc(-c2cncc3[nH]c(-c4n[nH]c5ccc(-c6cncc(CN7CCC(F)(F)C7)c6)nc45)nc23)c1` [Compound 26, 5-(5-((3,3-Difluoropyrrolidin-1-yl)methyl)pyridin-3-yl)-3-(7-(3-fluorophenyl)-3H-imidazo[4,5-c]pyridin-2-yl)-1H-pyrazolo[4,3-b]pyridine], in assay [1], the EC50 was over 10000 nM and the inhibition at 10 µM stood at 21%. This molecule also gave an EC50 in assay [2] of 1090 nM.
For `CC(C)(C)C(=O)Nc1cncc(-c2ccc3[nH]nc(-c4nc5c(-c6ccc(F)cc6)cncc5[nH]4)c3n2)c1` [Compound 36, N-(5-(3-(7-(4-Fluorophenyl)-3H-imidazo[4,5-c]pyridin-2-yl)-1H-pyrazolo[4,3-b]pyridin-5-yl)pyridin-3-yl)pivalamide], in assay [1], the EC50 was over 10000 nM and the inhibition at 10 µM was determined as 35.9%. Besides, the EC50 in assay [2] was found to be 2730 nM.
In the same order, the values of `Fc1ccc(-c2cncc3[nH]c(-c4n[nH]c5ccc(-c6cncc(CN7CCCC7)c6)nc45)nc23)cc1` [Compound 42, 3-(7-(4-Fluorophenyl)-3H-imidazo[4,5-c]pyrid-2-yl)-5-(5-(pyrrolidin-1-ylmethyl)pyridin-3-yl)-1H-pyrazolo[4,3-b]pyridine] are over 10000 nM, 42% and 3350 nM.
Turning to `Fc1ccccc1-c1cncc2[nH]c(-c3n[nH]c4ccc(-c5ccccn5)nc34)nc12` [Compound 84, 3-(7-(2-Fluorophenyl)-3H-imidazo[4,5-c]pyridin-2-yl)-5-(pyridin-2-yl)-1H-pyrazolo[4,3-b]pyridine], in assay [1], the EC50 was over 10000 nM and the inhibition at 10 µM was determined as 46.8%. This molecule also showed an EC50 in assay [2] of 644 nM.
As for `CC(C)Nc1cncc(-c2ccc3[nH]nc(-c4nc5c(-c6cccnc6)cncc5[nH]4)c3n2)c1` [Compound 96, N-Isopropyl-5-(3-(7-(pyridin-3-yl)-3H-imidazo[4,5-c]pyridin-2-yl)-1H-pyrazolo[4,3-b]pyridin-5-yl)pyridin-3-amine], the EC50 in assay [1] is 1750 nM; in assay [2], 1350 nM.
On to `CN(C)c1cncc(-c2ccc3[nH]nc(-c4nc5c(N6CCCCC6)cncc5[nH]4)c3n2)c1` [Compound 175, N,N-dimethyl-5-(3-(7-(piperidin-1-yl)-3H-imidazo[4,5-c]pyridin-2-yl)-1H-pyrazolo[4,3-b]pyridin-5-yl)pyridin-3-amine], for which the figures for the EC50 in assay [1] and in assay [2] were 122 nM and 3970 nM, respectively.
Regarding `Cc1ccncc1-c1ccc2[nH]nc(-c3nc4c(-c5ccsc5)cncc4[nH]3)c2n1` [Compound 257, 5-(4-Methylpyridin-3-yl)-3-(7-(thiophen-3-yl)-3H-imidazo[4,5-c]pyridin-2-yl)-1H-pyrazolo[4,3-b]pyridine], the values for the EC50 in assay [1] and in assay [2] were over 10000 nM and 641 nM, respectively. Moreover, in assay [1], the inhibition at 10 µM was 11.5%.
In the same order, the values of `CCCC(=O)Nc1cncc(-c2ccc3[nH]nc(-c4nc5c(-c6ccsc6)cncc5[nH]4)c3n2)c1` [Compound 269, N-(5-(3-(7-(Thiophen-3-yl)-3H-imidazo[4,5-c]pyridin-2-yl)-1H-pyrazolo[4,3-b]pyridin-5-yl)pyridin-3-yl)butyramide] are over 10000 nM, 3720 nM and 45.9%.
As to `FC1(F)CCN(Cc2cncc(-c3ccc4[nH]nc(-c5nc6c(-c7ccsc7)cncc6[nH]5)c4n3)c2)C1` [Compound 278, 5-(5-((3,3-difluoropyrrolidin-1-yl)methyl)pyridin-3-yl)-3-(7-(thiophen-3-yl)-3H-imidazo[4,5-c]pyridin-2-yl)-1H-pyrazolo[4,3-b]pyridine], the values for the concentration giving a half-maximal response (EC50) in assay [1] and in assay [2] were 5790 nM and 1040 nM, respectively.
In the same order, the values of `CC(C)Nc1cncc(-c2ccc3[nH]nc(-c4nc5c(-c6ccoc6)cncc5[nH]4)c3n2)c1` [Compound 292, 5-(3-(7-(Furan-3-yl)-3H-imidazo[4,5-c]pyridin-2-yl)-1H-pyrazolo[4,3-b]pyridin-5-yl)-N-isopropylpyridin-3-amine] are 2560 nM and 597 nM.
`c1cc(-c2cncc3[nH]c(-c4n[nH]c5ccc(-c6cncc(CNCC7CCCC7)c6)nc45)nc23)co1` [Compound 305, 1-Cyclopentyl-N-((5-(3-(7-(furan-3-yl)-3H-imidazo[4,5-c]pyridin-2-yl)-1H-pyrazolo[4,3-b]pyridin-5-yl)pyridin-3-yl)methyl)methanamine]: in assay [1], the concentration for a half-maximal effect (EC50) is over 10000 nM and the inhibition at 10 µM turned out to be 24.5%. For the same molecule, in assay [2], the midpoint of the response, the EC50, lay at 8610 nM.
On to `CN(C)c1cncc(-c2ccc3[nH]nc(-c4nc5c(-c6cccs6)cncc5[nH]4)c3n2)c1` [Compound 315, N,N-Dimethyl-5-(3-(7-(thiophen-2-yl)-3H-imidazo[4,5-c]pyridin-2-yl)-1H-pyrazolo[4,3-b]pyridin-5-yl)pyridin-3-amine], for which the EC50 is 31 nM in assay [1] and 710 nM in assay [2].
For `Cc1ccc(-c2cncc3[nH]c(-c4n[nH]c5ccc(-c6cncc(N)c6)nc45)nc23)s1` [Compound 367, 5-(3-(7-(5-Methylthiophen-2-yl)-3H-imidazo[4,5-c]pyridin-2-yl)-1H-pyrazolo[4,3-b]pyridin-5-yl)pyridin-3-amine], in that order: 125 nM and 41 nM.
In the same order, the values of `CC(C)Nc1cncc(-c2ccc3[nH]nc(-c4nc5c(-c6cc(F)cc(NCCN(C)C)c6)cncc5[nH]4)c3n2)c1` [Compound 432, N^1-(3-Fluoro-5-(2-(5-(5-(isopropylamino)pyridin-3-yl)-1H-pyrazolo[4,3-b]pyridin-3-yl)-3H-imidazo[4,5-c]pyridin-7-yl)phenyl)-N^2,N^2-dimethylethane-1,2-diamine] are 2290 nM and 1660 nM.
`Cc1ccncc1-c1ccc2[nH]nc(-c3nc4c(-c5cc(F)cc(CNS(C)(=O)=O)c5)cncc4[nH]3)c2n1` [Compound 453, N-(3-Fluoro-5-(2-(5-(4-methylpyridin-3-yl)-1H-pyrazolo[4,3-b]pyridin-3-yl)-3H-imidazo[4,5-c]pyridin-7-yl)benzyl)methanesulfonamide]: in assay [1], the half-maximal effective concentration (EC50) is over 10000 nM and the inhibition at 10 µM was 23.9%. The EC50 in assay [2] worked out at 3210 nM.
For `CN(C)CCOc1cncc(-c2ccc3[nH]nc(-c4nc5c(-c6cccc(F)c6)cncc5[nH]4)c3n2)c1` [Compound 487, 2-((5-(3-(7-(3-Fluorophenyl)-3H-imidazo[4,5-c]pyridin-2-yl)-1H-pyrazolo[4,3-b]pyridin-5-yl)pyridin-3-yl)oxy)-N,N-dimethylethan-1-amine], in that order: over 10000 nM, 33.4% and 3440 nM.
In the same order, the values of `COc1cncc(-c2ccc3[nH]nc(-c4nc5c(-c6cccc(F)c6)cncc5[nH]4)c3n2)c1` [Compound 488, 3-(7-(3-Fluorophenyl)-3H-imidazo[4,5-c]pyridin-2-yl)-5-(5-methoxylpyridin-3-yl)-1H-pyrazolo[4,3-b]pyridine] are over 10000 nM, 43% and 24 nM.
Turning to `O=C(CC1CCNCC1)Nc1cncc(-c2ccc3[nH]nc(-c4nc5c(-c6ccccn6)cncc5[nH]4)c3n2)c1` [Compound 565, 2-(Piperidin-4-yl)-N-(5-(3-(7-(pyridin-2-yl)-3H-imidazo[4,5-c]pyridin-2-yl)-1H-pyrazolo[4,3-b]pyridin-5-yl)pyridin-3-yl)acetamide], in assay [1], the EC50 was over 10000 nM and the inhibition at 10 µM came out at 34.7%. Besides, in assay [2], the inhibition at 10 µM came to 44.2% and the EC50 is over 10000 nM.
Regarding `c1ncc(-c2ccc3[nH]nc(-c4nc5c(N6CCCCC6)cncc5[nH]4)c3n2)cc1OCCN1CCCC1` [Compound 582, 3-(7-(Piperidin-1-yl)-3H-imidazo[4,5-c]pyridin-2-yl)-5-(5-(2-(pyrrolidin-1-yl)ethoxy)pyridin-3-yl)-1H-pyrazolo[4,3-b]pyridine], the midpoint of the response in assay [1], the EC50, lay at 1630 nM. In addition, in assay [2], the inhibition at 10 µM was found to be 6.6% and the EC50 is over 10000 nM.
For `Oc1cncc(-c2ccc3[nH]nc(-c4nc5c(N6CCCCC6)cncc5[nH]4)c3n2)c1` [Compound 585, 5-(3-(7-(Piperidin-1-yl)-3H-imidazo[4,5-c]pyridin-2-yl)-1H-pyrazolo[4,3-b]pyridin-5-yl)pyridin-3-ol], in that order: 1380 nM, 4.3% and over 10000 nM.
